IC50 data for 28 molecules are collected here from patent publication US20240343704A1, “HALO-SUBSTITUTED AMINO PYRIDINE COMPOUNDS AS INHIBITORS OF THE HAEMATOPOIETIC PROGENITOR KINASE 1 (HPK1)” (priority 2021, published 2024).

Molecules are shown by their SMILES. Some results are limits rather than exact numbers.

The assay deals with T1, Recombinant (1-346) HPK1 (h) (Homo sapiens, UniProt Q92918).
T1 construct: Recombinant (1-346) HPK1 (h) is incubated with 8 mM MOPS pH 7.0
T1 sequence (Q92918 1-346): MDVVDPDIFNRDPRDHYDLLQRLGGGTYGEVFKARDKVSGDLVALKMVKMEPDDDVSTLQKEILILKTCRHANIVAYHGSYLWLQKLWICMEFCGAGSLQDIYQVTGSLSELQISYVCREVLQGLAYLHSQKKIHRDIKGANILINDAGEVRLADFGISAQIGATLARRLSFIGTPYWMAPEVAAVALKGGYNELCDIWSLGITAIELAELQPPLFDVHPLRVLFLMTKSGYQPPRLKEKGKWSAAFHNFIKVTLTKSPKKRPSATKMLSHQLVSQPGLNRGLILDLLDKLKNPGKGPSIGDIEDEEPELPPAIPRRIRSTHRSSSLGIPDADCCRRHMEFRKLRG
Briefly: HPK1 Human STE Kinase Enzymatic Radiometric Assay. It counts as biochemical. Particulars: read-out: HPK1 IC50 nM Range*. How it is done: A stock solution of 10 mM of test compound is prepared in DMSO. The compound plate was prepared by 3-fold and 9-point serial dilutions. […] The reaction is initiated by The addition of the Mg/ATP mix. After incubation for 40 minutes at RT, the reaction is stopped by the addition of phosphoric acid to a concentration of 0.5%.
For orientation: IC50 means the point on the concentration scale where inhibition reaches its midpoint. As to `CN(C)Cc1cc(-c2cc(-c3cc4c(F)c[nH]c(=O)c4cc3F)c(N)nc2F)ccc1C1CCOCC1` [I-562, 6-(2-amino-5-(3-((dimethylamino)methyl)-4-(tetrahydro-2H-pyran-4-yl)phenyl)-6-fluoropyridin-3-yl)-4,7-difluoroisoquinolin-1(2H)-one], the IC50 was 0.1 to 10 nM.

On to `COC1CCN(Cc2cc(-c3cc(-c4ccc5c(c4)CCNC5=O)c(N)nc3F)ccc2N2CCSCC2)CC1` [I-512, 6-(2-amino-6-fluoro-5-(3-((4-methoxypiperidin-1-yl)methyl)-4-thiomorpholinophenyl)pyridin-3-yl)-3,4-dihydroisoquinolin-1(2H)-one], for which the IC50 was 11 to 100 nM.

`CN(C)Cc1cc(-c2cc(-c3ccc4c(c3)CCNC4=O)c(N)nc2F)ccc1N1CCSCC1` [I-487, 6-(2-amino-5-(3-((dimethylamino)methyl)-4-thiomorpholinophenyl)-6-fluoropyridin-3-yl)-3,4-dihydroisoquinolin-1(2H)-one]: the IC50 fell in the range of 0.1 to 10 nM.

Consider `CN(C)Cc1cc(-c2cc(-c3cc4c(F)c[nH]c(=O)c4cc3F)c(N)nc2F)ccc1N1CCOCC1` [I-561, 6-(2-amino-5-(3-((dimethylamino)methyl)-4-morpholinophenyl)-6-fluoropyridin-3-yl)-4,7-difluoroisoquinolin-1(2H)-one], for which the IC50 was 0.1 to 10 nM.

For the molecule `CCN(C)Cc1cc(-c2cc(-c3ccc4c(=O)[nH]cc(F)c4c3)c(N)nc2F)ccc1OC` [I-633, 6-(2-amino-5-(3-((ethyl(methyl)amino)methyl)-4-methoxyphenyl)-6-fluoropyridin-3-yl)-4-fluoroisoquinolin-1(2H)-one], the IC50 was in the range of 11 to 100 nM.

In the case of `CO[C@@H]1CCN(Cc2cc(-c3cc(-c4cc5c(cc4F)C(=O)NCC5)c(N)nc3F)ccc2N2CCOCC2)C1` [I-564, (R)-6-(2-amino-6-fluoro-5-(3-((3-methoxypyrrolidin-1-yl)methyl)-4-morpholinophenyl)pyridin-3-yl)-7-fluoro-3,4-dihydroisoquinolin-1(2H)-one], the IC50 fell in the range of 11 to 100 nM.

On to `CN(C)Cc1cc(-c2cc(-c3ccc4c(c3)CCNC4=O)c(N)nc2F)ccc1OCCCC(F)F` [I-524, 6-(2-amino-5-(4-(4,4-difluorobutoxy)-3-((dimethylamino)methyl)phenyl)-6-uoropyridin-3-yl)-3,4-dihydroisoquinolin-1(2H)-one], for which the IC50 lay in the range of 0.1 to 10 nM.

For the molecule `COC1CN(Cc2cc(-c3cc(-c4cc5c(cc4F)C(=O)NCC5)c(N)nc3F)ccc2N2CCOCC2)C1` [I-523, 6-(2-amino-6-fluoro-5-(3-((3-methoxyazetidin-1-yl)methyl)-4-morpholinophenyl)pyridin-3-yl)-7-fluoro-3,4-dihydroisoquinolin-1(2H)-one], the half-inhibitory concentration (IC50) was in the range of 11 to 100 nM.

As to `CC(C)N1CCN(c2ccc(-c3cc(-c4cc(F)c5c(c4)CNC5=O)c(N)nc3F)cc2)CC1` [I-637, 5-(2-amino-6-fluoro-5-(4-(4-isopropylpiperazin-1-yl)phenyl)pyridin-3-yl)-7-fluoroisoindolin-1-one], the IC50 was in the range of 11 to 100 nM.

For `Cc1cc2cc(-c3cc(-c4ccc(N5CCN(CCCC(F)F)CC5)cc4)c(F)nc3N)cc(F)c2c(=O)[nH]1` [I-567, 6-(2-amino-5-(4-(4-(4,4-difluorobutyl)piperazin-1-yl)phenyl)-6-fluoropyridin-3-yl)-8-fluoro-3-methylisoquinolin-1(2H)-one], the IC50 was in the range of 0.1 to 10 nM.

In the case of `CN(C)Cc1cc(-c2cc(-c3cc4c(cc3F)C(=O)NCC4)c(N)nc2F)ccc1OC1CCOCC1` [I-531, 6-(2-amino-5-(3-((dimethylamino)methyl)-4-((tetrahydro-2H-pyran-4-yl)oxy)phenyl)-6-fluoropyridin-3-yl)-7-fluoro-3,4-dihydroisoquinolin-1(2H)-one], the IC50 was in the range of 11 to 100 nM.

On to `CO[C@H]1CCN(Cc2nc(-c3cc(-c4ccc5c(c4)CCNC5=O)c(N)nc3F)ccc2N2CCOCC2)C1` [I-584, (S)-6-(6′-amino-2-fluoro-6-((3-methoxypyrrolidin-1-yl)methyl)-5-morpholino-[2,3′-bipyridin]-5′-yl)-3,4-dihydroisoquinolin-1(2H)-one], for which the IC50 fell in the range of 0.1 to 10 nM.

On to `CC(C)N1CCN(c2ccc(-c3cc(-c4cc5c(Cl)c[nH]c(=O)c5cn4)c(N)nc3F)cc2)CC1` [I-570, 6-(2-amino-6-fluoro-5-(4-(4-isopropylpiperazin-1-yl)phenyl)pyridin-3-yl)-4-chloro-2,7-naphthyridin-1(2H)-one], for which the IC50 fell in the range of 0.1 to 10 nM.

As for `Nc1nc(F)c(-c2ccc(N3CCN(CCCC(F)F)CC3)cn2)cc1-c1ccc2c(c1)CCNC2=O` [I-593, 6-(6′-amino-5-(4-(4,4-difluorobutyl)piperazin-1-yl)-2′-fluoro-[2,3′-bipyridin]-5′-yl)-3,4-dihydroisoquinolin-1(2H)-one], the IC50 lay in the range of 0.1 to 10 nM.

Regarding `Cc1nc2cc(-c3cc(-c4ccc(N5CCN(CCC(F)F)CC5)cc4)c(F)nc3N)cc(F)c2c(=O)[nH]1` [I-485, 7-(2-amino-5-(4-(4-(3,3-difluoropropyl)piperazin-1-yl)phenyl)-6-fluoropyridin-3-yl)-5-fluoro-2-methylquinazolin-4(3H)-one], the IC50 lay in the range of 11 to 100 nM.

Take `CN1CCOC2(C1)CN(c1ccc(-c3cc(-c4cc5c(cc4F)C(=O)NCC5)c(N)nc3F)cc1)C2` [I-539, 6-(2-amino-6-fluoro-5-(4-(8-methyl-5-oxa-2,8-diazaspiro[3.5]nonan-2-yl)phenyl)pyridin-3-yl)-7-fluoro-3,4-dihydroisoquinolin-1(2H)-one]: the IC50 fell in the range of 0.1 to 10 nM.

Take `CN(C)Cc1cc(-c2cc(-c3ccc4c(c3)CCNC4=O)c(N)nc2F)ccc1C1CCOC1` (stereo not shown) [I-620, 6-(2-amino-5-(3-((dimethylamino)methyl)-4-(tetrahydrofuran-3-yl)phenyl)-6-fluoropyridin-3-yl)-3,4-dihydroisoquinolin-1(2H)-one]: the IC50 is 0.1 to 10 nM.

As to `CN(C)Cc1cc(-c2cc(-c3ccc4c(c3)CCNC4=O)c(N)nc2F)cnc1N1CCOCC1` [I-612, 6-(6-amino-5′-((dimethylamino)methyl)-2-fluoro-6′-morpholino-[3,3′-bipyridin]-5-yl)-3,4-dihydroisoquinolin-1(2H)-one], the IC50 was in the range of 11 to 100 nM.

In the case of `CN(C)Cc1c(N2CCOCC2)ccc(-c2cc(-c3ccc4c(c3)CCNC4=O)c(N)nc2F)c1F` [I-606, 6-(2-amino-5-(3-((dimethylamino)methyl)-2-fluoro-4-morpholinophenyl)-6-fluropyridin-3-yl)-3,4-dihydroisoquinolin-1(2H)-one], the IC50 fell in the range of 11 to 100 nM.

With `CN(C)Cc1cc(-c2cc(-c3cc4c(cc3F)C(=O)NCC4)c(N)nc2F)ccc1OCC1CCOCC1` [I-533, 6-(2-amino-5-(3-((dimethylamino)methyl)-4-((tetrahydro-2H-pyran-4-yl)methoxy)phenyl)-6-fluoropyridin-3-yl)-7-fluoro-3,4-dihydroisoquinolin-1(2H)-one], the IC50 lay in the range of 0.1 to 10 nM.

For `CN(C)Cc1cc(-c2cc(-c3cc4c(cc3F)C(=O)NCC4)c(N)nc2F)ccc1N1CCN(C2CCCC2)CC1` [I-452, 6-(2-amino-5-(4-(4-cyclopentylpiperazin-1-yl)-3-((dimethylamino)methyl)phenyl)-6-fluoropyridin-3-yl)-7-fluoro-3,4-dihydroisoquinolin-1(2H)-one], the IC50 is 0.1 to 10 nM.

Consider `Cc1c[nH]c(=O)c2c(F)cc(-c3cc(-c4ccc(N5CCN(C(C)C)CC5)cc4)c(F)nc3N)cc12` [I-571, 6-(2-amino-6-fluoro-5-(4-(4-isopropylpiperazin-1-yl)phenyl)pyridin-3-yl)-8-fluoro-4-methylisoquinolin-1(2H)-one], for which the IC50 is 0.1 to 10 nM.

As for `Nc1nc(F)c(-c2ccc(C3CCOCC3)c(CN3CCCC3)c2)cc1-c1ccc2c(c1)CCNC2=O` [I-557, 6-(2-amino-6-fluoro-5-(3-(pyrrolidin-1-ylmethyl)-4-(tetrahydro-2H-pyran-4-yl)phenyl)pyridin-3-yl)-3,4-dihydroisoquinolin-1(2H)-one], the IC50 fell in the range of 11 to 100 nM.

As for `Nc1nc(F)c(-c2ccc(N3CCN(CC4CC4(F)F)CC3)cc2)cc1-c1ccc2c(c1)CCNC2=O` (stereo not shown) [I-640, 6-(2-amino-5-(4-(4-((2,2-difluorocyclopropyl)methyl)piperazin-1-yl)phenyl)-6-fluoropyridin-3-yl)-3,4-dihydroisoquinolin-1(2H)-one], the IC50 lay in the range of 0.1 to 10 nM.

On to `CC(C)N1CCN(c2ccc(-c3cc(-c4ccc5c(=O)[nH]c(C6CCC6)nc5c4)c(N)nc3F)cc2)CC1` [I-413, 7-(2-amino-6-fluoro-5-(4-(4-isopropylpiperazin-1-yl)phenyl)pyridin-3-yl)-2-cyclobutylquinazolin-4(3H)-one], for which the half-inhibitory concentration (IC50) lay within 101 to 1000 nM.

Regarding `Nc1nc(F)c(-c2ccc(C3=CCOCC3)cc2C=O)cc1-c1cc2c(cc1F)C(=O)NCC2` [I-514, 2-(6-amino-2-fluoro-5-(7-fluoro-1-oxo-1,2,3,4-tetrahydroisoquinolin-6-yl)pyridin-3-yl)-5-(3,6-dihydro-2H-pyran-4-yl)benzaldehyde], the IC50 lay in the range of 101 to 1000 nM.

On to `CN1CCc2c(cccc2-c2cc(-c3ccc4c(c3)CCNC4=O)c(N)nc2F)C1` [I-463, 6-(2-amino-6-fluoro-5-(2-methyl-1,2,3,4-tetrahydroisoquinolin-5-yl)pyridin-3-yl)-3,4-dihydroisoquinolin-1(2H)-one], for which the IC50 was greater than 1000 nM.

With `CN(C)Cc1cc(-c2cc(-c3cc4c(cc3F)C(=O)NCC4)c(N)nc2F)ccc1C1CCOC1` (stereo not shown) [I-621, 6-(2-amino-5-(3-((dimethylamino)methyl)-4-(tetrahydrofuran-3-yl)phenyl)-6-fluoropyridin-3-yl)-7-fluoro-3,4-dihydroisoquinolin-1(2H)-one], the IC50 lay within 11 to 100 nM.
